Results published in PMC8936486 (PLoS Biology, 2022).

Tests used:
SaFtsZf [1] = target: T1, SaFtsZf (Staphylococcus aureus, UniProt P0A029); assay: light scattering of polymer assembly; format: biochemical; conditions: 10 mM MgCl2, pH 6.5, 25 °C
T1 construct: gene ftsZ
T1 sequence (P0A029 1-390): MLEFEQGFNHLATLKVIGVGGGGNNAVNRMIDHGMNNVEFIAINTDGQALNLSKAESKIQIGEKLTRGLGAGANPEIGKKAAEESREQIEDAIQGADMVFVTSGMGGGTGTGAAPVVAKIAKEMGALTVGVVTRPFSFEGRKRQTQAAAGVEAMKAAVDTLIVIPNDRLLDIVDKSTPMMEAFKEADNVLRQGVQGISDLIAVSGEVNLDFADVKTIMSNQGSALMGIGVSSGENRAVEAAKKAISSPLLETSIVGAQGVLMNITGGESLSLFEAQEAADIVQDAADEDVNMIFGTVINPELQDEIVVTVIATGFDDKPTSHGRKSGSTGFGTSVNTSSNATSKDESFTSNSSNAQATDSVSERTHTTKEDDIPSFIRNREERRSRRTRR

MjFtsZ = target: T2, MjFtsZ (Methanocaldococcus jannaschii, UniProt Q57816); assay: light scattering of polymer assembly; format: biochemical; conditions: 5 mM BeF3- with GTP, 55 °C; stabilizes polymers, repolymerization after disassembly
T2 construct: gene ftsZ1; full-length, nucleotide-devoid (apo)

SaFtsZf [2] = target: T1, SaFtsZf; assay: electron microscopy of polymers; format: biochemical; conditions: MES assembly buffer, 25 °C
[3] = target: the molecule itself; assay: right angle light scattering; self-assembly of full-length FtsZ with 1 mM GTP and MgCl2 in MES assembly buffer; SaFtsZf 49 uM and EcFtsZ 25 uM at 25 C, apo-MjFtsZ 15 uM at 55 C; SaFtsZf polymers also seen by electron microscopy

Molecule: [F][Be-]([F])[F] [BeF3^−]
- light scattering of polymer assembly (SaFtsZf [1]; 1-5 mM BeF3- with 1 mM GTP, stabilizes polymers): Assembly of full-length SaFtsZ is stabilized by BeF3^−
- light scattering of polymer assembly (MjFtsZ): Repolymerization with BeF3^− after disassembly was observed for MjFtsZ

Molecule: Nc1nc2c(ncn2[C@@H]2O[C@H](COP(=O)(O)CP(=O)(O)OP(=O)(O)O)[C@@H](O)[C@H]2O)c(=O)[nH]1 [GMPCPP, guanosine-5′-[(α,β)-methyleno]triphosphate]
- electron microscopy of polymers (SaFtsZf [2]): Polymers formed with GMPCPP

Molecule: Nc1nc2c(ncn2[C@@H]2O[C@H](COP(=O)(O)OP(=O)(O)OP(=O)(O)O)[C@@H](O)[C@H]2O)c(=O)[nH]1 [GTP]
- light scattering of polymer assembly (SaFtsZf [1]; 1 mM GTP): The sample with GTP depolymerized upon nucleotide consumption (blue line)

B1: full-length FtsZ from E. coli (natural protein, Escherichia coli, UniProt P0A9A6 1-383, looked up)
chain: MFEPMELTNDAVIKVIGVGGGGGNAVEHMVRERIEGVEFFAVNTDAQALRKTAVGQTIQIGSGITKGLGAGANPEVGRNAADEDRDALRAALEGADMVFIAAGMGGGTGTGAAPVVAEVAKDLGILTVAVVTKPFNFEGKKRMAFAEQGITELSKHVDSLITIPNDKLLKVLGRGISLLDAFGAANDVLKGAVQGIAELITRPGLMNVDFADVRTVMSEMGYAMMGSGVASGEDRAEEAAEMAISSPLLEDIDLSGARGVLVNITAGFDLRLDEFETVGNTIRAFASDNATVVIGTSLDPDMNDELRVTVVATGIGMDKRPEITLVTNKQVQQPVMDRYQQHGMAPLTQEQKPVAKVVNDNAPQTAKEPDYLDIPAFLRKQAD
notes: full-length FtsZ from Escherichia coli, wild-type protein; also called EcFtsZ; Escherichia coli FtsZ; source: purified as described [54]
- binding result [3]: binds

B2: nucleotide-devoid, full-length FtsZ from M. jannaschii (natural protein, Methanocaldococcus jannaschii, UniProt Q57816 1-364, looked up)
chain: MKFLKNVLEEGSKLEEFNELELSPEDKELLEYLQQTKAKITVVGCGGAGNNTITRLKMEGIEGAKTVAINTDAQQLIRTKADKKILIGKKLTRGLGAGGNPKIGEEAAKESAEEIKAAIQDSDMVFITCGLGGGTGTGSAPVVAEISKKIGALTVAVVTLPFVMEGKVRMKNAMEGLERLKQHTDTLVVIPNEKLFEIVPNMPLKLAFKVADEVLINAVKGLVELITKDGLINVDFADVKAVMNNGGLAMIGIGESDSEKRAKEAVSMALNSPLLDVDIDGATGALIHVMGPEDLTLEEAREVVATVSSRLDPNATIIWGATIDENLENTVRVLLVITGVQSRIEFTDTGLKRKKLELTGIPKI
notes: full-length FtsZ from Methanocaldococcus jannaschii, nucleotide-devoid; also called apo-MjFtsZ; MjFtsZ; source: prepared as reported [55]
- binding result [3]: binds

B3: full-length FtsZ from S. aureus (natural protein, Staphylococcus aureus Mu50/ATCC 700699, UniProt P0A029 1-390, looked up)
chain: T1 sequence (P0A029 1-390)
notes: full-length FtsZ from methicillin-resistant S. aureus Mu50/ATCC 700699; also called SaFtsZf; full-length SaFtsZ
- binding result [3]: binds
